Experimental data as given in PMC4476799, “Englerin A Agonizes the TRPC4/C5 Cation Channels to Inhibit Tumor Cell Line Proliferation” (PLoS ONE, 2015).
Read-outs that look alike come from different tables or passages of the source.

Tested on: cancer cell lines from the cancer cell line encyclopedia (CCLE)
Assay: Cell line profiling (CLiP) proliferation experiment
Format: cell-based
Set-up: ACTIVITY_AREA: scale not given here; AMAX: unit not given here
Conditions: for IC50: read-out: Crossing Point; for EC50: read-out: Inflection Point
Description: Compound profiling experiment and data analysis was performed as previously described. Data was imported and plotted using the Tibco Spotfire DXP application. Lines were categorized as sensitive, intermediate and refractory as follows: Amax<-40 & Inflection Point <2 ~ Sensitive, Amax>-20 & Inflection Point >10 ~ Refractory, all else were called Intermediate. Cancer Cell line HG-U133 Plus 2 data was processed and normalized as described. […] Five sets of refractory cell lines were generated from the pool of refractory cell lines trying to match the lineage composition of the set of sensitive cell lines. The limma package was used as previously described to perform the statistical comparison.

[1] = COR-L23, lung, large_cell_carcinoma
[2] = COR-L47, lung, small_cell_carcinoma
[3] = COR-L88, lung, small_cell_carcinoma
[4] = COR-L279, lung, small_cell_carcinoma
[5] = Calu-6, lung, undifferentiated_carcinoma
[6] = Capan-1, pancreas, ductal_carcinoma
[7] = DBTRG-05MG, central_nervous_system, astrocytoma_Grade_IV
[8] = DK-MG, central_nervous_system, astrocytoma_Grade_IV
[9] = DLD-1, large_intestine, adenocarcinoma
[10] = DMS 114, lung, small_cell_carcinoma
[11] = DMS 273, lung, small_cell_carcinoma
[12] = Daoy, central_nervous_system, NS
[13] = Detroit 562, upper_aerodigestive_tract, NS
[14] = EFM-192A, cell line EFM-192A, breast
[15] = HCC1500, cell line HCC1500, breast

For CC(C)[C@@]12C[C@@H](O)[C@@](C)(O1)[C@@H]1CC[C@@H](C)[C@H]1[C@@H]2OC(=O)/C=C/c1ccccc1 [Englerin B], the AMAX (COLO-704, ovary, NS) was -63.22, the RESPONSE (COLO-704, ovary, NS) was “INTERMEDIATE” and the ACTIVITY_AREA (COLO-800, skin, NS) was 66.95. For the same compound, the AMAX (COLO-800, skin, NS) was -43.63, the RESPONSE (COLO-800, skin, NS) was “INTERMEDIATE” and the ACTIVITY_AREA [1] was 32.4. The AMAX [1] was -39.64, the RESPONSE [1] was “INTERMEDIATE” and the ACTIVITY_AREA [2] was 92.1. The AMAX [2] was -15.76, the RESPONSE [2] was “REFRACTORY” and the ACTIVITY_AREA [3] was 20.83. For the same compound, the AMAX [3] was -31.56, the RESPONSE [3] was “INTERMEDIATE” and the ACTIVITY_AREA [4] was 130.29. The AMAX [4] was -86.84, the RESPONSE [4] was “INTERMEDIATE” and the IC50 (COV318, COV318, ovary, NS) was 25.6 µM. It also gave an EC50 (COV318, COV318, ovary, NS) of 25.6 µM, an ACTIVITY_AREA (COV318, ovary, NS) of 39.59 and an AMAX (COV318, ovary, NS) of -54.13. For the same compound, the RESPONSE (COV318, ovary, NS) was “INTERMEDIATE”, the IC50 (COV504, COV504, ovary, NS) was > 30 µM and the IC50 (COV504, cell line COV504 (ovary, NS)) was > 30 µM. The ACTIVITY_AREA (COV504, ovary, NS) was 33.53, the AMAX (COV504, ovary, NS) was -45.79 and the RESPONSE (COV504, ovary, NS) was “INTERMEDIATE”. The ACTIVITY_AREA (COV644, ovary, NS) was 35.24, the AMAX (COV644, ovary, NS) was -28.86 and the RESPONSE (COV644, ovary, NS) was “INTERMEDIATE”. For the same compound, the IC50 (COV644, ovary, NS) was > 30 µM, the EC50 (COV644, ovary, NS) was 3.05 µM and the IC50 (COV644 cells) was > 30 µM. The EC50 (COV644 cells) was 3.05 µM, the ACTIVITY_AREA (Calu-3, lung, adenocarcinoma) was 19.78 and the AMAX (Calu-3, lung, adenocarcinoma) was 4.65. The RESPONSE (Calu-3, lung, adenocarcinoma) was “REFRACTORY”, the ACTIVITY_AREA [5] was 28.42 and the AMAX [5] was -47.13. For the same compound, the RESPONSE [5] was “INTERMEDIATE”, the ACTIVITY_AREA (Caov-3, ovary, adenocarcinoma) was 128.76 and the AMAX (Caov-3, ovary, adenocarcinoma) was -55.06. The RESPONSE (Caov-3, ovary, adenocarcinoma) was “INTERMEDIATE”, the ACTIVITY_AREA [6] was 29.63 and the AMAX [6] was -25.75. For the same compound, the RESPONSE [6] was “INTERMEDIATE”, the IC50 (Ci-1, CI-1 cells) was > 30 µM and the IC50 (DAN-G cells) was 29.3 µM. It also gave an EC50 (DAN-G cells) of 29.3 µM, an ACTIVITY_AREA (DAN-G, pancreas, NS) of 26.93 and an AMAX (DAN-G, pancreas, NS) of -50.77. For the same compound, the RESPONSE (DAN-G, pancreas, NS) was “INTERMEDIATE”, the IC50 (DAN-G, pancreas, NS) was 29.3 µM and the EC50 (DAN-G, pancreas, NS) was 29.3 µM. The ACTIVITY_AREA [7] was 21.88, the AMAX [7] was -30.64 and the RESPONSE [7] was “INTERMEDIATE”. For the same compound, the ACTIVITY_AREA [8] was 33.27, the AMAX [8] was -67.8 and the RESPONSE [8] was “INTERMEDIATE”. The IC50 [8] was 16.1 µM, the EC50 [8] was 12.5 µM and the ACTIVITY_AREA [9] was 71.46. For the same compound, the AMAX [9] was -59.67, the RESPONSE [9] was “INTERMEDIATE” and the ACTIVITY_AREA [10] was 21.61. The AMAX [10] was -57.16, the RESPONSE [10] was “INTERMEDIATE” and the ACTIVITY_AREA [11] was 29.68. For the same compound, the AMAX [11] was -73.92, the RESPONSE [11] was “INTERMEDIATE” and the ACTIVITY_AREA [12] was 43. The AMAX [12] was -39.21, the RESPONSE [12] was “INTERMEDIATE” and the ACTIVITY_AREA [13] was 35.45. The AMAX [13] was -46.18, the RESPONSE [13] was “INTERMEDIATE” and the IC50 [14] was 22.9 µM. For the same compound, the EC50 [14] was 22.9 µM, the EC50 (EFM-192A, cell line EFM-192A) was 22.9 µM and the IC50 (GP2d, cell line GP2d, large_intestine) was > 30 µM. For the same compound, the IC50 (GP2d, cell line GP2d) was > 30 µM, the IC50 (HCC15, cell line HCC-15, lung) was 15.5 µM and the IC50 (HCC366, cell line HCC-366, lung) was > 30 µM. For the same compound, the IC50 (HCC366, cell line HCC-366) was > 30 µM, the IC50 (HCC1171, cell line HCC-1171, lung) was 26.9 µM and the IC50 [15] was > 30 µM. For the same compound, the EC50 [15] was 8.24 µM, the IC50 (HCC1500, cell line HCC1500) was > 30 µM and the IC50 (HEC-6, cell line HEC-6, endometrium) was > 30 µM. For the same compound, the IC50 (HEC-6, cell line HEC-6) was > 30 µM and the IC50 (HEC-50B, cell line HEC-50B, endometrium) was > 30 µM.
